The source of these data is paper PMC5515844, “A new Prenylated Flavonoid induces G0/G1 arrest and apoptosis through p38/JNK MAPK pathways in Human Hepatocellular Carcinoma cells” (Scientific Reports, 2017).

For test [1], the system named is nine human cancer cell lines and one normal hepatic cell line. In words: MTT cytotoxicity assay, summary over the cell line panel. Type of test: cell-based. The method, then:
(§1) HepG2 and Hep3B (human hepatoma cells), Bcap37 and MCF-7 (human breast cancer cells), TE-1 (human esophageal cancer cells), A549 (human lung carcinoma cells), U251 and U87 (human glioma cells), were cultured in Dulbecco’s modified Eagle’s medium (DMEM) supplemented with 10% fetal bovine serum (FBS) and 1% penicillin/streptomycin (10000 U/mL penicillin, 10000 μg/ml streptomycin). SH-SY5Y (human neuroblastoma cells), LO2 (human normal liver cell) were grown in RPMI 1640 containing 10% FBS and 100 µg/ml penicillin, 100 µg/ml streptomycin. HepG2, Hep3B, MCF-7, TE-1, A549, U87, U251 and SHSY5Y cells were obtained from the American Type Culture Collection (Manassas, VA, USA). Bcap37 and LO2 cells were purchased from the Cell Bank of Chinese Academy of Sciences (Shanghai, China). All cells were incubated in a humidified atmosphere containing 5% CO2 at 37 °C.
(§2) Cells seeded in 96-well plates with 5 × 10^3 cells/well were adhered overnight and incubated with vehicle control (DMSO) or diverse concentrations of compounds for 48 h. After treatment, 20 μL of MTT (5 mg/mL) was added to each well and incubated for another 4 h at 37 °C. Then, 150 μL of DMSO/well was appended after removed the supernatant to dissolve the formed purple formazan crystals and the color absorbance was measured at 490 nm using a microplate reader (Molecular Devices, Thermo, CA, USA). The inhibition rate (%) was calculated as (A490(control) − A490(drug groups))/(A490(control) − A490(blank)) × 100 and the value of IC50 (the concentration that caused 50% inhibition of cell viability) was determined using SPSS 20.0. This experiment was measured in triplicate, independently.
(In general: Tetrazolium dyes change colour on reduction, which living cells bring about.)

Another test deals with LO2. In words: MTT cytotoxicity assay, normal hepatic cells. Particulars: Homo sapiens, L02, 48 h, mean ± SD. Type of test: cell-based. The method, then: as §1, §2
In a further test the test system is A549. In words: MTT cytotoxicity assay. Type of test: cell-based. Particulars: Homo sapiens, 48 h, mean ± SD. The method, then:
as §1, §2

The next test deals with SH-SY5Y. In words: MTT cytotoxicity assay. Type of test: cell-based. Particulars: Homo sapiens, 48 h, mean ± SD. As for the experimental part: as §1, §2
A further test concerns TE-1. In words: MTT cytotoxicity assay. The format is cell-based. The settings on record: Homo sapiens, 48 h, mean ± SD. The method, then: as §1, §2
A further test concerns Bcap37. In words: MTT cytotoxicity assay. The format is cell-based. Particulars: Homo sapiens, 48 h, mean ± SD. The method, then: as §1, §2
In the next test the test system is MCF-7. The test can be described thus: MTT cytotoxicity assay. The format is cell-based. The settings on record: Homo sapiens, MCF7, 48 h, mean ± SD. The method, then: as §1, §2
In another test the test system is U87. In words: MTT cytotoxicity assay. The format is cell-based. The settings on record: Homo sapiens, U-87 MG, 48 h, mean ± SD. As for the experimental part:
as §1, §2

A further test concerns U251. In words: MTT cytotoxicity assay. Type of test: cell-based. Particulars: Homo sapiens, U-251, 48 h, mean ± SD. As for the experimental part:
as §1, §2

For a further test, the system named is HepG2. The test can be described thus: MTT cytotoxicity assay. Type of test: cell-based, human. The settings on record: for IC50: Homo sapiens, HepG2, MTT, 48 h, mean ± SD; for effect of inhibitor on the reduction of cell viability by daphnegiravone D: HepG2, MTT, pretreated with 10 μM inhibitor 1 h, then 10 μM daphnegiravone D 48 h. The method, then:
as §1, §2

The test system of the next test is Hep3B. In words: MTT cytotoxicity assay. Particulars: for IC50: Homo sapiens, 48 h, mean ± SD; for effect of inhibitor on the reduction of cell viability by daphnegiravone D: pretreated with 10 μM inhibitor 1 h, then 2 μM daphnegiravone D 48 h. Type of test: cell-based, human. The method, then: as §1, §2
For the next test, the system named is HepG2 cells. Also noted: method as in PMID 25446044. The settings on record: cited from earlier work.
Setting [2] is: most cancer cell lines, read-out: IC50 values against most cancer cell lines.
[3] abbreviates: most cell lines, read-out: IC50 values against most cell lines.

Where two headings read alike, the source gives them in different places.

Regarding `COc1c(-c2ccc(O)c(O)c2)oc2c(CC=C(C)C)c(O)c(CC=C(C)C)c(O)c2c1=O` [Compound 2, broussoflavonol B], the half-maximal inhibitory concentration (IC50) in [1] (setting [2]) was ~20 µM; in the test with LO2, 22.4 ± 2.63 µM; with A549, 15 ± 1.21 µM; in the test with SH-SY5Y it was 13.5 ± 0.95 µM; in the test with TE-1, 20 ± 2.3 µM; with Bcap37, 42.4 ± 4.83 µM. For the same molecule, the concentration for half-maximal inhibition (IC50) stood at 19.2 ± 1.76 µM in the test with MCF-7; 20.3 ± 2.08 µM with U87; 19.8 ± 1.53 µM in the test with U251; 26.1 ± 1.89 µM with HepG2; 14.2 ± 1.56 µM with Hep3B.

Turning to `CC(C)=CCc1c(-c2ccc(O)cc2O)oc2c3c(cc(O)c2c1=O)OC(C)(C)C=C3` [Compound 3, morusin], the IC50 in test [1] (setting [2]) is ~20 µM; in the test with LO2, 28.2 ± 3.14 µM; with A549, 23.9 ± 1.97 µM; in the test on SH-SY5Y, 45.4 ± 3.24 µM; in the test on TE-1 it was 22.8 ± 1.79 µM; with Bcap37, 31 ± 2.34 µM. The IC50 in the test on MCF-7 amounted to 13.5 ± 2.51 µM; in the test on U87, 23.4 ± 2.79 µM; with U251, 17.1 ± 2.22 µM; with HepG2, 9.76 ± 0.94 µM; in the test on Hep3B it was 14.2 ± 1.87 µM.

Consider `COc1c(-c2cc(O)c3c(c2)C=CC(C)(C)O3)oc2c(CC=C(C)C)c(O)cc(O)c2c1=O` [Compound 4, daphnegiravone A], for which the IC50 was > 50 µM in [1] (setting [3]); > 100 µM in the test with LO2; 66.8 ± 4.3 µM in the test on A549; 74.4 ± 4.87 µM in the test on SH-SY5Y; > 100 µM in the test with TE-1; > 100 µM with Bcap37. The half-inhibitory concentration (IC50) with MCF-7 is > 100 µM; in the test on U87 it was 71 ± 4.36 µM; in the test with U251, > 100 µM; in the test with HepG2 it was 36.7 ± 2.21 µM; with Hep3B it was > 100 µM.

`CC(C)=CCc1cc([C@@H]2CC(=O)c3ccc(O)cc3O2)c2c(c1O)OC(C)(C)CC2` [Compound 5, daphnegiravone C]: the IC50 in test [1] (setting [3]) is > 50 µM; with LO2 it was > 100 µM; in the test on A549, 20 ± 1.31 µM; with SH-SY5Y, 54.8 ± 3.72 µM; with TE-1, > 100 µM; with Bcap37 it was > 100 µM. The concentration for half-maximal inhibition (IC50) with MCF-7 was > 100 µM; with U87, 49.9 ± 3.87 µM; in the test on U251, > 100 µM; in the test with HepG2, > 100 µM; in the test with Hep3B, 55.4 ± 3.97 µM.

As to `O=c1[nH]cc(F)c(=O)[nH]1` [Compound 5FU, 5-Fluorouracil, reference compound], the 50% inhibitory concentration (IC50) turned out to be 31.9 ± 3.78 µM with LO2; 31.9 ± 2.74 µM with A549; 18.6 ± 1.38 µM in the test on SH-SY5Y; 26.7 ± 2.01 µM with TE-1; 44.1 ± 3.82 µM in the test on Bcap37; 42.3 ± 3.03 µM in the test with MCF-7. The IC50 in the test with U87 was 20.2 ± 1.98 µM; in the test on U251, 42.6 ± 3.49 µM; in the test with HepG2 it was 47.1 ± 3.68 µM; with Hep3B it was 10.4 ± 1.44 µM.

In the case of `C[S+]([O-])c1ccc(-c2nc(-c3ccncc3)c(-c3ccc(F)cc3)[nH]2)cc1` (centres unmarked) [SB203580, reference compound], the “effect of inhibitor on the reduction of cell viability by daphnegiravone D” value with HepG2 and in the test with Hep3B was “abolished” throughout.

For the molecule `Oc1c2ccccc2c2c3c(cccc13)N=N2` [SP600125, reference compound], the “effect of inhibitor on the reduction of cell viability by daphnegiravone D” value in the test with HepG2 and in the test with Hep3B was “exacerbated” in each case.

Turning to Kurzphenol C, the “inhibitory effect on HepG2 cells” value with HepG2 cells is “weak inhibitory effect”.

As a reminder, the IC50 is the concentration at which inhibition is half-maximal.
